One substance from patent US20260199485A1, “RNA DEGRADERS AND USES THEREOF” (Arrakis Therapeutics, Inc., priority 2022, published 2026) can be followed below.

{DBCO-TEG} = DBCO-TEG group for click conjugation of the bait; l = locked nucleic acid (LNA); d = 2'-deoxy (DNA)

The test system of data set [1] is Renilla STAT3 3′UTR reporter. The data set is described as follows: Cellular dual luciferase reporter assay (Renilla STAT3 3′UTR reporter, tagged CNOT7) in H1299 cells. It counts as cell-based. The conditions noted are these: 10 nM, 30 nM, 100 nM ASO-bait, 24 hours, with CNOT7, relative to non-targeting ASO-bait. From the text:
Reporter constructs for cellular assays are depicted in FIG. 12. A luciferase reporter construct was designed to the 3′ UTR of STAT3 fused to Renilla luciferase, which contains the PEST and CP1 destabilizing domains. A second luciferase reporter construct was designed using the 3′UTR of HBB fused to Firefly luciferase, which contains the PEST and CP1 destabilizing domains. The reporter design for both constructs was previously described in Luo E C, et al. Nat Struct Mol Biol. 2020; 27(10):989-1000.
An antisense oligo was conjugated to the bait molecule AP1867, which binds FKPB12 via click-chemistry to generate a heterobifunctional molecule (ASO-bait). The bait molecule was chemically modified to contain an azide to allow for click chemistry. […]
A model system to interrogate the ability of a bifunctional RNA binder—CNOT7 binder is depicted in FIG. 13. A parallel approach utilizing a luciferase readout together with mRNA expression analysis was employed to assess the bifunctional molecule's capability to recruit CNOT7 to target mRNA and mediate mRNA degradation. […] A parallel plate was assessed for cell viability using CellTiter Glo (Promega). Data was analyzed by normalizing reporter signal relative to normalizer signal, and this ratio was then normalized to GFP. […]
In general terms: Reporter assays use an easily measured gene product as a stand-in for the process of interest.

The test system of another data set is STAT3 mRNA. Briefly: Endogenous STAT3 mRNA expression assay (ddPCR) in H1299 cells expressing tagged CNOT7. It is filed as cell-based. The conditions noted are these: 200 nM ASO-bait, 24 hours, with CNOT7, relative to non-targeting ASO-bait and GFP control. On the procedure:
For the endogenous mRNA expression assay, H1299 cells were seeded in a 12-well plate the day before transfection. On the following day, the cells were transfected with the plasmid expressing tagged CNOT7 and incubated for 24 hours. The following day, cells were transfected with 200 nM of the targeting or non-targeting ASO-bait molecules and incubated for 24 hours. In addition, cells were also transfected with a known STAT3 silencing ASO as a positive control for STAT3 mRNA knockdown. Samples were directly lysed in-well for RNA purification using the Promega Maxwell Automated RNA Extractor, followed by single-strand cDNA synthesis. The resulting cDNA was serially diluted at 1:100, which was used in the ddPCR reaction with primers designed to STAT3 and housekeeping genes (CLTC and TBP), the sequences of which are shown below. Data were analyzed by normalizing STAT3 relative to the geomean of TBP and CLTC. All transfections were performed using Lipofectamine 3000 (Invitrogen). […] Thus, the bifunctional molecule is capable of accelerating the degradation of endogenously expressed RNA.

Regarding “targeting ASO-bait: "An antisense oligo was conjugated to the bait molecule AP1867"; oligonucleotide binds "a sequence in the 3′UTR of STAT3" (SEQ ID NO:3) (antisense GAAGTACACATTGG; sugars from the 5' end dldldldldldldl, all phosphorothioate, 5' {DBCO-TEG}, methylation of C not given here; Bait AP1867 attached by click chemistry to the 5' DBCO-TEG)”, in data set [1], the “reporter signal (Renilla STAT3 3′UTR normalized to Firefly HBB and GFP)” value is reported as “reduction in reporter signal”. Further, the “STAT3 expression (mRNA, ddPCR, normalized to TBP and CLTC)” value in the data set with STAT3 mRNA is given as “reduction in STAT3 expression”.
